Test results: US20250250230A1, “HETEROCYCLIC COMPOUND” (TAKEDA PHARMACEUTICAL COMPANY LIMITED, priority 2022, published 2025)

Biological target: T1, human orexin type 2 receptor (Homo sapiens, UniProt O43614)
T1 construct: expressed in transfected cells
T1 sequence (O43614 1-444): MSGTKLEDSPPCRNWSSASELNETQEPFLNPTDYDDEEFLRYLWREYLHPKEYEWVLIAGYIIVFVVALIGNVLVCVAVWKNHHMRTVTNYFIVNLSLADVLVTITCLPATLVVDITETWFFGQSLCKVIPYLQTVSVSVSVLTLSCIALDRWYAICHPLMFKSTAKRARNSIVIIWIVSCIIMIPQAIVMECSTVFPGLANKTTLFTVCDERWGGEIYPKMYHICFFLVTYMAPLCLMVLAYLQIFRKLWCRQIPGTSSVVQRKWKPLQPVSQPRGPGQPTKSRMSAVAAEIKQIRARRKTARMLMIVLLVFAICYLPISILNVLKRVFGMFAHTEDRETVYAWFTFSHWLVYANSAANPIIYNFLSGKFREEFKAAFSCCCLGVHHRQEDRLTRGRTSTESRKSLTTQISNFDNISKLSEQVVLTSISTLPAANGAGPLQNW
Assay: Measurement of orexin type 2 receptor agonist activity (calcium fluorescence, Fluo-4 AM, FDSS)
Type: cell-based
Settings: test compound 3 μM; CHO cells expressing human OX2 receptor; DMSO = 0%, orexin A (human) = 100%
Summary of the method: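 CHO-K1 cells stably expressing human OX2R were loaded with Fluo-4 AM (30 min 37 °C, 30 min RT) in HEPES-buffered HBSS with 0.1% BSA and probenecid. Calcium fluorescence was followed on FDSS for 2 min after compound addition; activity normalised to DMSO (0%) and 10 nM orexin A (100%).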

| Compound | OX2R agonist activity (3 μM, %) [%] |
| --- | --- |
| CS(=O)(=O)NC1CN(C(=O)C2CC2c2c(F)cccc2-c2c(F)cccc2F)CC1(F)F (stereo not drawn) [Example 226, N-{4,4-difluoro-1-[2-(2′,3,6′-trifluoro[1,1′-biphenyl]-2-yl)cyclopropane-1-carbonyl]pyrrolidin-3-yl}methanesulfonamide optical isomer] | 104 |
| CNS(=O)(=O)NC[C@@H]1[C@H](F)CN1C(=O)C1(COC)CC1c1ccc(F)cc1-c1c(F)cccc1F (stereo partly drawn) [Example 438, N-({(2R,3R)-3-fluoro-1-[(1R,2S)-1-(methoxymethyl)-2-(2′,5,6′-trifluoro[1,1′-biphenyl]-2-yl)cyclopropane-1-carbonyl]azetidin-2-yl}methyl)-N′-methylsulfuric diamide, or N-({(2R,3R)-3-fluoro-1-[(1S,2R)-1-(methoxymethyl)-2-(2′,5,6′-trifluoro[1,1′-biphenyl]-2-yl)cyclopropane-1-carbonyl]azetidin-2-yl}methyl)-N′-methylsulfuric diamide] | 101 |
| CS(=O)(=O)NC1CCCN(C(=O)C2CC2c2ccc(C(F)F)cc2-c2c(F)cccc2F)CC1 (racemic) [Example 229, a mixture of rac-N-[(4R)-1-{(1R,2R)-2-[5-(difluoromethyl)-2′,6′-difluoro[1,1′-biphenyl]-2-yl]cyclopropane-1-carbonyl}azepan-4-yl]methanesulfonamide and rac-N-[(4S)-1-{(1R,2R)-2-[5-(difluoromethyl)-2′,6′-difluoro[1,1′-biphenyl]-2-yl]cyclopropane-1-carbonyl}azepan-4-yl]methanesulfonamide] | 64 |
| O=C([C@@H]1C[C@@]1(F)c1ccc(F)cc1-c1c(F)cccc1F)N1C[C@@H](F)[C@H]1CNS(=O)(=O)CBr [Example 431, 1-bromo-N-({(2R,3R)-3-fluoro-1-[(1S,2S)-2-fluoro-2-(2′,5,6′-trifluoro[1,1′-biphenyl]-2-yl)cyclopropane-1-carbonyl]azetidin-2-yl}methyl)methanesulfonamide] | 95 |
| CCS(=O)(=O)N[C@H]1CCCN(C(=O)[C@@H]2C[C@H]2c2c(F)cccc2-c2c(F)cccc2F)C1 [Example 307, N-{(3S)-1-[(1R,2R)-2-(2′,3,6′-trifluoro[1,1′-biphenyl]-2-yl)cyclopropane-1-carbonyl]piperidin-3-yl}ethanesulfonamide] | 100 |
| CNS(=O)(=O)N[C@H]1CCN(C(=O)[C@@H]2C[C@H]2c2ccccc2-c2c(F)cccc2F)C1 [Example 335, N-{(3S)-1-[(1R,2R)-2-(2′,6′-difluoro[1,1′-biphenyl]-2-yl)cyclopropane-1-carbonyl]pyrrolidin-3-yl}-N′-methylsulfuric diamide] | 96 |
| CC(C)NS(=O)(=O)NC[C@@H]1[C@H](F)CN1C(=O)[C@@H]1C[C@@]1(F)c1ccc(F)cc1-c1c(F)cccc1F [Example 425, N-({(2R,3R)-3-fluoro-1-[(1S,2S)-2-fluoro-2-(2′,5,6′-trifluoro[1,1′-biphenyl]-2-yl)cyclopropane-1-carbonyl]azetidin-2-yl}methyl)-N′-propan-2-ylsulfuric diamide] | 72 |
| CS(=O)(=O)NC1CCCN(C(=O)C2CC2c2ccc(F)cc2-c2ccccc2)CC1 (racemic) [Example 87, a mixture of rac-N-{(4R)-1-[(1R,2R)-2-(5-fluoro[1,1′-biphenyl]-2-yl)cyclopropane-1-carbonyl]azepan-4-yl}methanesulfonamide and rac-N-{(4S)-1-[(1R,2R)-2-(5-fluoro[1,1′-biphenyl]-2-yl)cyclopropane-1-carbonyl]azepan-4-yl}methanesulfonamide] | 81 |
| CC1CN(C(=O)C2CC2c2ccccc2-c2c(F)cccc2F)CCCC1NS(C)(=O)=O (racemic) [Example 217] | 83 |

Results, then the compound that gave them:

| OX2R agonist activity (3 μM, %) [%] | Compound |
| --- | --- |
| 106 | CS(=O)(=O)NC1CCCN(C(=O)C2CC2c2ccccc2-c2c(F)cccc2F)CC1 (racemic) [Example 38, a mixture of rac-N-{(4R)-1-[(1R,2R)-2-(2′,6′-difluoro[1,1′-biphenyl]-2-yl)cyclopropane-1-carbonyl]azepan-4-yl}methanesulfonamide and rac-N-{(4S)-1-[(1R,2R)-2-(2′,6′-difluoro[1,1′-biphenyl]-2-yl)cyclopropane-1-carbonyl]azepan-4-yl}methanesulfonamide] |
| 104 | CS(=O)(=O)NC1CCN(C(=O)C2CC2c2c(F)cccc2-c2c(F)cccc2F)C1 (racemic) [Example 26, a mixture of rac-N-{(3R)-1-[(1R,2R)-2-(2′,3,6′-trifluoro[1,1′-biphenyl]-2-yl)cyclopropane-1-carbonyl]pyrrolidin-3-yl}methanesulfonamide and rac-N-{(3S)-1-[(1R,2R)-2-(2′,3,6′-trifluoro[1,1′-biphenyl]-2-yl)cyclopropane-1-carbonyl]pyrrolidin-3-yl}methanesulfonamide] |
| 94 | Cc1ccc(C2CC2C(=O)N2CCC(NS(C)(=O)=O)C2)c(-c2ccccc2Cl)c1 (racemic) [Example 145, a mixture of rac-N-{(3R)-1-[(1R,2R)-2-(2′-chloro-5-methyl[1,1′-biphenyl]-2-yl)cyclopropane-1-carbonyl]pyrrolidin-3-yl}methanesulfonamide and rac-N-{(3S)-1-[(1R,2R)-2-(2′-chloro-5-methyl[1,1-biphenyl]-2-yl)cyclopropane-1-carbonyl]pyrrolidin-3-yl}methanesulfonamide] |
| 64 | CS(=O)(=O)N[C@@H]1CN(C(=O)[C@@H]2C[C@H]2c2ccccc2-c2c(F)cccc2F)CC[C@@H]1O [Example 270, N-{(3R,4S)-1-[(1R,2R)-2-(2′,6′-difluoro[1,1′-biphenyl]-2-yl)cyclopropane-1-carbonyl]-4-hydroxypiperidin-3-yl}methanesulfonamide] |
| 110 | Cc1ccc(C2CC2C(=O)N2CCC(NS(C)(=O)=O)C2)c(-c2c(F)cccc2F)c1 (racemic) [Example 136, a mixture of rac-N-{(3R)-1-[(1R,2R)-2-(2′,6′-difluoro-5-methyl[1,1′-biphenyl]-2-yl)cyclopropane-1-carbonyl]pyrrolidin-3-yl}methanesulfonamide and rac-N-{(3S)-1-[(1R,2R)-2-(2′,6′-difluoro-5-methyl[1,1′-biphenyl]-2-yl)cyclopropane-1-carbonyl]pyrrolidin-3-yl}methanesulfonamide] |
| 97 | CO[C@H]1C[C@H](NS(C)(=O)=O)CN(C(=O)[C@@H]2C[C@H]2c2ccccc2-c2c(F)cccc2F)C1 [Example 349, N-{(3S,5S)-1-[(1R,2R)-2-(2′,6′-difluoro[1,1′-biphenyl]-2-yl)cyclopropane-1-carbonyl]-5-methoxypiperidin-3-yl}methanesulfonamide] |
| 78 | CS(=O)(=O)N[C@@H]1CCCCN(C(=O)C2CC2c2ccccc2-c2c(F)cccc2F)C1 (mixture of isomers) [Example 183, a mixture of N-{(3R)-1-[(1R,2R)-2-(2′,6′-difluoro[1,1′-biphenyl]-2-yl)cyclopropane-1-carbonyl]azepan-3-yl}methanesulfonamide and N-{(3R)-1-[(1S,2S)-2-(2′,6′-difluoro[1,1′-biphenyl]-2-yl)cyclopropane-1-carbonyl]azepan-3-yl}methanesulfonamide] |
| 96 | CS(=O)(=O)NC1COCCN(C(=O)C2CC2c2ccccc2-c2c(F)cccc2F)C1 (racemic) [Example 219, a mixture of rac-N-{(6R)-1-[(1R,2R)-2-(2′,6′-difluoro[1,1′-biphenyl]-2-yl)cyclopropane-1-carbonyl]-1,4-oxazepan-6-yl}methanesulfonamide and rac-N-{(6S)-4-[(1R,2R)-2-(2′,6′-difluoro[1,1′-biphenyl]-2-yl)cyclopropane-1-carbonyl]-1,4-oxazepan-6-yl}methanesulfonamide] |
| 98 | CS(=O)(=O)NC12CCC1CN(C(=O)C1CC1c1ccccc1-c1c(F)cccc1F)C2 (stereo not drawn) [Example 273, N-{3-[2-(2′,6′-difluoro[1,1′-biphenyl]-2-yl)cyclopropane-1-carbonyl]-3-azabicyclo[3.1.0]hexan-1-yl}methanesulfonamide optical isomer] |
| 93 | CS(=O)(=O)N[C@H]1CCCN(C(=O)[C@@H]2C[C@H]2c2ccccc2-c2c(F)cccc2F)CC1 [Example 25, N-{(4S)-1-[(1R,2R)-2-(2′,6′-difluoro[1,1′-biphenyl]-2-yl)cyclopropane-1-carbonyl]azepan-4-yl}methanesulfonamide] |
| 95 | COCC1(NS(C)(=O)=O)CCN(C(=O)[C@@H]2C[C@@]2(F)c2ccccc2-c2c(F)cccc2F)C1 (stereo partly drawn) [Example 373, N-[(3R)-1-[(1S,2S)-2-(2′,6′-difluoro[1,1′-biphenyl]-2-yl)-2-fluorocyclopropane-1-carbonyl]-3-(methoxymethyl)pyrrolidin-3-yl]methanesulfonamide, or N-[(3S)-1-[(1S,2S)-2-(2′,6′-difluoro[1,1′-biphenyl]-2-yl)-2-fluorocyclopropane-1-carbonyl]-3-(methoxymethyl)pyrrolidin-3-yl]methanesulfonamide] |
